Laboratory results from patent US7880010B2, “Crystalline forms of a dimethylphenyl compound” (Theravance, Inc., priority 2006, dated 2011).

How the values were obtained:
[1] = biological target: T1, hM5 muscarinic receptor (Homo sapiens, UniProt P08912); assay: Radioligand binding assay for muscarinic receptors ([3H]-NMS displacement); details: M5 muscarinic receptor subtype, CHO cell membranes, [3H]-NMS 1 nM
T1 construct: purchased PerkinElmer, Inc. (Wellesley, Mass.); host or cells: CHO cell membranes
T1 sequence (P08912 1-532): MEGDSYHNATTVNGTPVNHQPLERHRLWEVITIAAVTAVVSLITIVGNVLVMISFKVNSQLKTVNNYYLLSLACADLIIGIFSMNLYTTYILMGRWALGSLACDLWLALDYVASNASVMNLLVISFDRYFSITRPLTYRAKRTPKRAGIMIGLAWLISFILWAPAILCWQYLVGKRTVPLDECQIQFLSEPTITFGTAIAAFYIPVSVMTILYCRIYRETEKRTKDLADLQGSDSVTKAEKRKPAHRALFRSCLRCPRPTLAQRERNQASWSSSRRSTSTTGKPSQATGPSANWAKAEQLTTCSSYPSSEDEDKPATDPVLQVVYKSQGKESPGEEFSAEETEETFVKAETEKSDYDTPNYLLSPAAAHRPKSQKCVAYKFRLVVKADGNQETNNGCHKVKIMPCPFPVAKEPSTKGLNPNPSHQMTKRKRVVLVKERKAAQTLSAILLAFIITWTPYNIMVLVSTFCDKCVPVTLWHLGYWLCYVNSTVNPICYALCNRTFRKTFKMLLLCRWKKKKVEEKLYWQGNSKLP
Protocol: (§1) CHO cell lines stably expressing cloned human hM1, hM2, hM3 and hM4 muscarinic receptor subtypes, respectively, were grown to near confluency in Hams F-12 media supplemented with 10% FBS and 250 μg/mL Geneticin. The cells were grown in a 5% CO2, 37° C. incubator and lifted with 2 mM EDTA in dPBS. Cells were collected by 5 minute centrifugation at 650×g, and cell pellets were either stored frozen at −80° C. or membranes were prepared immediately for use. For membrane preparation, cell pellets were resuspended in lysis buffer and homogenized with a Polytron PT-2100 tissue disrupter (Kinematica AG; 20 seconds×2 bursts). Crude membranes were centrifuged at 40,000×g for 15 minutes at 4° C. The membrane pellet was then resuspended with re-suspension buffer and homogenized again with the Polytron tissue disrupter. The protein concentration of the membrane suspension was determined by the method described in Lowry et al., 1951, Journal of Biochemistry, 193, 265. All membranes were stored frozen in aliquots at −80° C. or used immediately. Aliquots of prepared hM5 receptor membranes were purchased directly from PerkinElmer, Inc. (Wellesley, Mass.) and stored at −80° C. until use.
(§2) Radioligand binding assays for cloned muscarinic receptors were performed in 96-well microtiter plates in a total assay volume of 100 μL. CHO cell membranes stably expressing either the hM1, hM2, hM3, hM4 or hM5 muscarinic subtype were diluted in assay buffer to the following specific target protein concentrations (μg/well): 10 μg for hM1, 10-15 μg for hM2, 10-20 μg for hM3, 10-20 μg for hM4, and 10-12 μg for hM5 to get similar signals (cpm). The membranes were briefly homogenized using a Polytron tissue disrupter (10 seconds) prior to assay plate addition. Saturation binding studies for determining KD values of the radioligand were performed using L-[N-methyl-^3H]scopolamine methyl chloride ([^3H]-NMS) (TRK666, 84.0 Ci/mmol, Amersham Pharmacia Biotech, Buckinghamshire, England) at concentrations ranging from 0.001 nM to 20 nM. Displacement assays for determination of Ki values of test compounds were performed with [^3H]-NMS at 1 nM and eleven different test compound concentrations. The test compounds were initially dissolved to a concentration of 400 μM in dilution buffer and then serially diluted 5× with dilution buffer to final concentrations ranging from 10 pM to 100 μM. The addition order and volumes to the assay plates were as follows: 25 μL radioligand, 25 μL diluted test compound, and 50 μL membranes. Assay plates were incubated for 60 minutes at 37° C. Binding reactions were terminated by rapid filtration over GF/B glass fiber filter plates (PerkinElmer, Inc.) pre-treated in 1% BSA. Filter plates were rinsed three times with wash buffer (10 mM HEPES) to remove unbound radioactivity. The plates were then air-dried and 50 μL Microscint-20 liquid scintillation fluid (PerkinElmer, Inc.) were added to each well. The plates were then counted in a PerkinElmer Topcount liquid scintillation counter (PerkinElmer, Inc.). Binding data were analyzed by nonlinear regression analysis with the GraphPad Prism Software package (GraphPad Software, Inc., San Diego, Calif.) using the one-site competition model. Ki values for test compounds were calculated from observed IC50 values and the KD value of the radioligand using the Cheng-Prusoff equation (Cheng Y; Prusoff W H. (1973) Biochemical Pharmacology, 22(23):3099-108). […]

[2] = biological target: T2, hM3 muscarinic receptor (Homo sapiens, UniProt P20309); assay: as above; details: M3 muscarinic receptor subtype, CHO cell membranes, [3H]-NMS 1 nM
T2 construct: expressed in transfected cells; host or cells: CHO
T2 sequence (P20309 whole entry): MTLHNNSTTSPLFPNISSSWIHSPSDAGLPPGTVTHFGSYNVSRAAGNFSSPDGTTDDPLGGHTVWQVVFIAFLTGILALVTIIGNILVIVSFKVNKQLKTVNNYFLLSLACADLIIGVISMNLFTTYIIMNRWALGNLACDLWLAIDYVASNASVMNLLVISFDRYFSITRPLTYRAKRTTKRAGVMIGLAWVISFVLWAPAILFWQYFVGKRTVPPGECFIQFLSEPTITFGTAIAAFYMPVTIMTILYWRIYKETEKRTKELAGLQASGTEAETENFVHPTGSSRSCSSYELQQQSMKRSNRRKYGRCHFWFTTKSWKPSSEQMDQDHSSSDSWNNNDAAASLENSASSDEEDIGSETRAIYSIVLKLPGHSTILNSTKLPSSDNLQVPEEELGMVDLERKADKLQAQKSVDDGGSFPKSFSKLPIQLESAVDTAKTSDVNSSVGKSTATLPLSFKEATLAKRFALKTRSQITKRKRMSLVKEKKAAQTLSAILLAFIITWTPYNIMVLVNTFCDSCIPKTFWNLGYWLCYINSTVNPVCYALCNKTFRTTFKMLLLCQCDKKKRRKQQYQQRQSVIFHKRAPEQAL
Protocol: as §1, §2

Ki [1]: < 10 nM
Ki [2]: < 10 nM
Compound: Cc1cc(NC(=O)CCN2CCC(OC(=O)Nc3ccccc3-c3ccccc3)CC2)c(C)cc1CNC[C@H](O)c1ccc(O)c(NC=O)c1 [compound of formula I, biphenyl-2-ylcarbamic acid 1-[2-(4-{[(R)-2-(3-formylamino-4-hydroxyphenyl)-2-hydroxyethylamino]methyl}-2,5-dimethylphenylcarbamoyl)ethyl]-piperidin-4-yl ester]
